We go through six compounds from the supplement of paper PMC7661543.

Common to all, as to assay: relative cell number vs DMSO control (72 h) (% of DMSO); higher = less growth inhibition (more cells)
Details in all cases: sgRNA knockout: sgNT

For assay [1], the system named is ZR-75-1. How it is done:
(§1)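 QMAP-Seq: a pool of 5 breast cancer cell lines (ZR-75-1, SKBR3, HCC-38, MDA-MB-231, BT-20), each carrying 12 doxycycline-inducible Cas9 sgRNA perturbations (11 knockouts plus non-targeting sgNT), was treated with compounds for 72 h at four 10-fold doses (10 nM-10 uM or 1 nM-1 uM range). Barcodes were amplified and sequenced, and cell number was interpolated from 293T spike-in standard curves. The result is expressed as % of the median of DMSO wells. Two biological replicates.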

For assay [2], the system named is SKBR3. How it is done:
as §1

Assay [3] deals with BT-20. How it is done: as §1
In assay [4] the test system is HCC-38. As for the experimental part:
as §1

Assay [5] deals with MDA-MB-231. How it is done:
as §1

± gives the standard deviation of the averaged measurements.

Regarding `CC(C)[C@H](O)C(=O)N[C@@H](C)C(=O)N[C@@H]1C(=O)N(C)CCc2ccccc21` [Semagacestat], the relative cell number was 112 ± 22 in assay [1] (10 nM); 92 ± 28 in assay [1] (100 nM); 89.7 ± 24 in assay [1] (1000 nM); 132 ± 19 in assay [1] (10000 nM); 112 ± 42 in assay [2] (10 nM); 83.1 ± 31 in assay [2] (100 nM). In addition, the relative cell number in assay [2] (1000 nM) is 72.2 ± 6.8; in assay [2] (10000 nM) it was 107 ± 42; in assay [3] (10 nM), 92.3 ± 13; in assay [3] (100 nM), 86.5 ± 12; in assay [3] (1000 nM), 113 ± 9.9; in assay [3] (10000 nM), 113 ± 23. The relative cell number in assay [4] (10 nM) was 107 ± 6.6; in assay [4] (100 nM), 107 ± 4.2; in assay [4] (1000 nM), 118 ± 3.2; in assay [4] (10000 nM) it was 84.4 ± 1.2; in assay [5] (10 nM), 126 ± 5.3; in assay [5] (100 nM), 83.5 ± 15. For the same compound, the relative cell number in assay [5] (1000 nM) worked out at 91.7 ± 11; in assay [5] (10000 nM) it was 96.9 ± 12.
For `C=C1C(=O)O[C@H]2[C@H]1CC/C(C)=C/CC[C@@]1(C)O[C@@H]21` [Parthenolide], the relative cell number turned out to be 94.9 ± 35 in assay [1] (10 nM); 128 ± 21 in assay [1] (100 nM); 71.5 ± 53 in assay [1] (1000 nM); 122 ± 3.6 in assay [1] (10000 nM); 98.3 ± 24 in assay [2] (10 nM); 122 ± 28 in assay [2] (100 nM). Besides, the relative cell number is 96.6 ± 16 in assay [2] (1000 nM); 98.9 ± 4.2 in assay [2] (10000 nM); 108 ± 14 in assay [3] (10 nM); 101 ± 3.3 in assay [3] (100 nM); 93.2 ± 14 in assay [3] (1000 nM); 96.5 ± 20 in assay [3] (10000 nM). The relative cell number in assay [4] (10 nM) is 114 ± 6.1; in assay [4] (100 nM), 92.6 ± 2; in assay [4] (1000 nM), 98.6 ± 16; in assay [4] (10000 nM), 113 ± 13; in assay [5] (10 nM), 130 ± 77; in assay [5] (100 nM) it was 123 ± 43. The results for the relative cell number in assay [5] (1000 nM) and in assay [5] (10000 nM) were 126 ± 11 and 124.5 ± 0.77, respectively.
Take `CN1CCN(CCCN2c3ccccc3Sc3ccc(C(F)(F)F)cc32)CC1` [Trifluoperazine]: the relative cell number came to 77.4 ± 46 in assay [1] (10 nM); 81.3 ± 30 in assay [1] (100 nM); 80.7 ± 20 in assay [1] (1000 nM); 37.4 ± 5.8 in assay [1] (10000 nM); 57.9 ± 35 in assay [2] (10 nM); 79 ± 23 in assay [2] (100 nM). The relative cell number in assay [2] (1000 nM) turned out to be 80.65 ± 0.72; in assay [2] (10000 nM) it was 50.3 ± 10; in assay [3] (10 nM), 80.3 ± 46; in assay [3] (100 nM) it was 90.7 ± 11; in assay [3] (1000 nM), 82.4 ± 4.9; in assay [3] (10000 nM) it was 78.4 ± 15. In addition, the relative cell number in assay [4] (10 nM) was found to be 97.3 ± 7; in assay [4] (100 nM) it was 86.1 ± 5.2; in assay [4] (1000 nM), 111 ± 8.7; in assay [4] (10000 nM), 80.4 ± 6.6; in assay [5] (10 nM), 77.9 ± 18; in assay [5] (100 nM), 117 ± 43. Also, the relative cell number in assay [5] (1000 nM) stood at 99.2 ± 25; in assay [5] (10000 nM), 77.8 ± 7.4.
Consider `C[C@]1(O)C[C@@H](c2nc(-c3ccc4ccc(-c5ccccc5)nc4c3)c3c(N)nccn32)C1` [Linsitinib], for which the relative cell number in assay [1] (10 nM) came to 90.6 ± 23; in assay [1] (100 nM) it was 95.7 ± 6.6; in assay [1] (1000 nM), 70.9 ± 15; in assay [1] (10000 nM), 65.7 ± 3.7; in assay [2] (10 nM), 94.7 ± 12; in assay [2] (100 nM), 104 ± 18. The relative cell number in assay [2] (1000 nM) was 78.71 ± 0.77; in assay [2] (10000 nM), 78.1 ± 11; in assay [3] (10 nM), 111 ± 19; in assay [3] (100 nM), 121 ± 28; in assay [3] (1000 nM) it was 79.2 ± 3.2; in assay [3] (10000 nM), 102 ± 11. The relative cell number came out at 95.4 ± 8 in assay [4] (10 nM); 99.1 ± 12 in assay [4] (100 nM); 78 ± 3.6 in assay [4] (1000 nM); 70.1 ± 4.4 in assay [4] (10000 nM); 116 ± 10 in assay [5] (10 nM); 104 ± 14 in assay [5] (100 nM). The values for the relative cell number in assay [5] (1000 nM) and in assay [5] (10000 nM) were 65.3 ± 20 and 64.9 ± 13, respectively.
Consider `CN/C(=N\CCSCc1nc[nH]c1C)NC#N` [Cimetidine], for which the relative cell number worked out at 103 ± 4.7 in assay [1] (10 nM); 121 ± 47 in assay [1] (100 nM); 101 ± 17 in assay [1] (1000 nM); 133 ± 39 in assay [1] (10000 nM); 78.8 ± 35 in assay [2] (10 nM); 141 ± 62 in assay [2] (100 nM). The relative cell number was found to be 107.1 ± 0.53 in assay [2] (1000 nM); 110 ± 13 in assay [2] (10000 nM); 111 ± 2.3 in assay [3] (10 nM); 108 ± 20 in assay [3] (100 nM); 100 ± 8.2 in assay [3] (1000 nM); 106 ± 15 in assay [3] (10000 nM). Further, the relative cell number in assay [4] (10 nM) was 101 ± 16; in assay [4] (100 nM) it was 97.2 ± 9.8; in assay [4] (1000 nM), 88.8 ± 11; in assay [4] (10000 nM), 101 ± 7.5; in assay [5] (10 nM) it was 103 ± 22; in assay [5] (100 nM), 106 ± 46. Besides, the relative cell number in assay [5] (1000 nM) worked out at 95.5 ± 9.1; in assay [5] (10000 nM) it was 92.2 ± 9.2.
With `O=C1NC(=O)[C@@H](c2cn3c4c(cccc24)CCC3)[C@@H]1c1c[nH]c2ccccc12` [Tivantinib], the relative cell number turned out to be 69.2 ± 29 in assay [1] (10 nM); 70.4 ± 1.6 in assay [1] (100 nM); 20.4 ± 6.4 in assay [1] (1000 nM); 16.6 ± 1.9 in assay [1] (10000 nM); 94.9 ± 2.9 in assay [2] (10 nM); 71.06 ± 0.6 in assay [2] (100 nM). The relative cell number in assay [2] (1000 nM) was 19.5 ± 5.7; in assay [2] (10000 nM) it was 6.47 ± 2; in assay [3] (10 nM), 109 ± 24; in assay [3] (100 nM) it was 83.6 ± 12; in assay [3] (1000 nM), 53 ± 6.2; in assay [3] (10000 nM), 26 ± 1.1. The relative cell number in assay [4] (10 nM) worked out at 89.1 ± 20; in assay [4] (100 nM) it was 84.9 ± 14; in assay [4] (1000 nM) it was 39.6 ± 4.2; in assay [4] (10000 nM), 25.8 ± 3.1; in assay [5] (10 nM), 107 ± 20; in assay [5] (100 nM), 97.1 ± 6.3. The values for the relative cell number in assay [5] (1000 nM) and in assay [5] (10000 nM) were 34.2 ± 18 and 22.9 ± 13, respectively.
